# From patent publication US20080200724A1, “Process and Compound” (NPIL Pharmaceuticals (UK) Ltd, priority 2005, published 2008)
# Tests used:
# [1] = in propan-1-ol at 60° C.
# Source text: In addition to methanol, other lower aliphatic alcohols were investigated. The solubility of BOC-protected 2R,3S—N-isobutyl-N-(2-hydroxy-3-amino-4-phenylbutyl)-p-nitrobenzene-sulfonylamide in propan-1-ol, propan-2-ol or butan-1-ol is too low to offer an economically viable process. […] The solubility of BOC-protected 2R,3S—N-isobutyl-N-(2-hydroxy-3-amino-4-phenylbutyl)-p-nitrobenzene-sulfonylamide in ethanol is better than that in C3 and C4-alcohols, but is still lower than the solubility in methanol. […] Similarly, acetone and 2-pentanone yield small acicular crystals.
# [2] = solvent mixtures comprising methanol and one or more of toluene or ethyl acetate, typically
# Description: The upper and lower concentration values are therefore dependent on the solubility characteristics of the material and the solvent mixture of choice. […] Therefore, for a crystallisation regime starting at 60° C. and ending at 0° C., a saturated or partially saturated solution in methanol and toluene, ethyl acetate admixtures, the concentration of BOC-protected 2R,3S—N-isobutyl-N-(2-hydroxy-3-amino-4-phenylbutyl)-p-nitrobenzene-sulfonylamide is in the range from 0.3 to 24% w/w.
smiles,measurement,setting,value
"CC(C)CN(C[C@@H](O)[C@H](Cc1ccccc1)NC(=O)OC(C)(C)C)S(=O)(=O)c1ccc([N+](=O)[O-])cc1 [BOC-protected 2R,3S—N-isobutyl-N-(2-hydroxy-3-amino-4-phenylbutyl)-p-nitrobenzene-sulfonylamide]",solubility,[1],less than 3 % w/w
same,maximum solubility achievable,[2]; 60° C.,24 % w/w
same,lower solubility value,[2]; end-point temperature of 0° C.,0.3 % w/w
